Data from patent US20230337664A1, “FRUIT FLY CONTROL” (MACQUARIE UNIVERSITY, priority 2020, published 2023).

How the values were obtained:
Bactrocera tryoni [1] = test: Oviposition assay for Bactrocera tryoni; assay type: in vivo; details: 1.17% w/v in agar plate with γ-octalactone; P<0.0001
Experimental: Agar plates with oviposition stimulant (OS; γ-octalactone) with 1-octanol (1.17% w/v) or 1-nonanol (1.17% w/v) were used as oviposition substrate to determine the oviposition deterrent activity of 1-octanol and 1-nonanol to gravid female B. tryoni. Agarose (0.8 g in 100 ml water) was melted in a microwave, was cooled to 40° C. and appropriate amount of the oviposition stimulant in combination with 1-octanol or 1-nonanol was added. This mixture was poured into Petri plates and cooled at 0° C. in a refrigerator. This was done to enhance setting of the mixture and lower volatile vaporization. Oviposition substrates were prepared freshly when required. Oviposition plate containing OS alone (control), OS+1-octanol or OS+1-nonanol was provided to gravid females (50 gravid females; 15-20 days old) in cages (30×30×30 cm) to lay eggs. The eggs laid in each plate was enumerated under a stereo-dissecting microscope (Olympus, Japan). Thirty replicates for each test compound and control were carried out.

Bactrocera jarvisi = test: Oviposition assay for Bactrocera jarvisi; assay type: in vivo; details: 1.17% in agar plate with mango juice; P<0.0001
Experimental: Agar plates with oviposition stimulant (MJ: Mango Juice) with 1-octanol (1.17%) or 1-nonanol (1.17%) were used as oviposition substrate to determine the oviposition deterrent activity of 1-octanol and 1-nonanol to gravid female B. jarvisi. Agar (0.8 g in 100 ml of diluted mango juice with water; 1:1) melted in a microwave, was cooled to 40° C. and appropriate amount of 1-octanol or 1-nonanol was added. This mixture was poured into Petri plates and cooled to 0° C. in a refrigerator. This was done to enhance setting of the mixture and lower volatile vaporization. Oviposition substrates were prepared freshly when required. Oviposition plate containing MJ alone (control), MJ+1-octanol or MJ+1-nonanol was provided to gravid females (20 gravid females; 15-20 days old) in cages (30×30×30 cm) to lay eggs. The eggs laid in each plate was enumerated under a stereo-dissecting microscope (Olympus, Japan). Twenty four replicates for each test compound and control were carried out.

Zeugodacus cucumis = test: Oviposition assay for Zeugodacus cucumis; assay type: in vivo; details: 1.17% w/v with zucchini juice on agar plate; P<0.0001
Experimental: Agar plates applied with oviposition stimulant (OS: fresh zucchini juice) with 1-octanol (1.17% w/v) or 1-nonanol (1.17% w/v) were used as oviposition substrate to determine the oviposition deterrent activity of 1-octanol and 1-nonanol to gravid female Z. cucumis. Agar (0.8 g in 100 ml water) was melted in a microwave, was cooled to 40° C. and poured into Petri plates and cooled at 0° C. Oviposition stimulant alone or OS mixed with 1-octanol or 1-nonanol (50 ul) was spread on agarose plates. Oviposition substrates were prepared freshly when required. Oviposition plate containing OS alone (control), OS+1-octanol or OS+1-nonanol was provided to gravid females (20 gravid females; 15-20 days old) in cages (30×30×30 cm) to lay eggs. The eggs laid in each plate was enumerated under a stereo-dissecting microscope (Olympus, Japan). Twenty four replicates for each test compound and control were carried out.

Ceratitis capitata = test: Oviposition assay for Ceratitis capitata; assay type: in vivo; details: grapes dipped in 1.17% w/v solution; P<0.0001
Source text: Red seedless grapes from IGA express (Murdoch University, Perth) washed with warm water thrice and dried with paper towel were used as oviposition substrate. Solution of 1-octanol (1.17% w/v) or 1-nonanol (1.17% w/v) were made by mixing appropriate amounts of 1-octanol or 1-nonanol in water with ethanol as an emulsifier. Washed grapes of equal size, dipped into the above solutions for 15-20 sec, was provided to gravid females (50 gravid females; 15-20 days old) in cages (30×30×30 cm) to lay eggs. Grapes that were dipped in water and emulsifier mixture was used as control. Eggs laid in each grapes was enumerated under a stereo-dissecting microscope (Olympus, Japan). Forty replicates for each test compound and control were carried out.

Bactrocera kraussi = test: Oviposition assay for Bactrocera kraussi; assay type: in vivo; details: orange segments dipped in 1.17% w/v solution; P<0.0001
Source text: Oranges from Woolworths (Marsfield, NSW) were washed with warm water and dried with paper towel. They were peeled and segmented and a single segment was used as oviposition substrate. Solution of 1-octanol (1.17% w/v) or 1-nonanol (1.17% w/v) were made by mixing appropriate amounts of 1-octanol or 1-nonanol in water with ethanol as an emulsifier. Orange segments of equal size, dipped into the above solutions for 15-20 sec, was provided to gravid females flies (20 gravid females; 20 days old) in cages (30×30×30 cm) to lay eggs. Orange segments dipped in water and emulsifier mixture was used as control. Eggs laid in each orange segment was enumerated under a stereo-dissecting microscope (Olympus, Japan). Twelve replicates for each test compound and control were carried out.

[2] = tested on: Bactrocera tryoni antenna; test: GC-EAG responses, Bactrocera tryoni; details: both sexes
Source text: (§1) Coupled Gas Chromatography-Electroantennography (GC-EAG) recordings were made with Ag-glass microelectrodes filled with electroconductive gel (Spectra 360, Parker Laboratories Inc., USA). The head of male or female flies (i.e., Bactrocera tryoni, Bactrocera jarvisi, Bactrocera kraussi, and Zeugodacus cucumis) was separated from the body with a microscalpel and was placed on the tip of the indifferent electrode, making sure the base of the head is affixed to the gel in the electrode. The tip of the insect antenna was made to touch the recording electrode and was slightly inserted into the gel to stabilize the antenna. The mounted heads were under charcoal filtered and humidified air flow (2400 mL min-1) controlled by a flow controller (Stimulus Controller CS-55, Syntech, Hilversum, The Netherlands). The signals were passed through a high impedance amplifier (UN-06, Syntech, Hilversum, The Netherlands). 1-octanol or 1-nonanol were tested individually or as mixture of known concentration. After injection of compounds, the effluent from the GC column was simultaneously directed to the antennal preparation and the GC detector. […] The outputs from the EAG amplifier and the FID were monitored simultaneously and analysed using the GCEAD 2014 software v1.2.5 (Syntech, The Netherlands).

[3] = tested on: Bactrocera jarvisi antenna; test: GC-EAG responses, Bactrocera jarvisi; details: both sexes
Source text: as §1

[4] = tested on: Bactrocera kraussi antenna; test: GC-EAG responses, Bactrocera kraussi; details: both sexes
Source text: as §1

[5] = tested on: Zeugodacus cucumis antenna; test: GC-EAG responses, Zeugodacus cucumis; details: both sexes
Source text: as §1

[6] = tested on: Ceratitis capitata antenna; test: Standalone EAG, Ceratitis capitata; details: both sexes; ten replicates per compound per sex
Source text: For the […], Ceratitis capitata, a standalone EAG was used for antennal recordings. Electroconductive gel (Spectra 360, Parker Laboratories Inc., USA) were applied to the arms of the metal electrodes and the head of male or female fly, separated from the body was affixed onto one of the indifferent metal arm. The recording arm with gel was made to touch a single or both the antenna of the fly. The antennal preparation was inserted to the EAG probe holder that was under filtered and humidified air the same as described above. The EAG signals were passed through a high impedance amplifier (UN-06, Syntech, Hilversum, The Netherlands). 1-Octanol or 1-nonanol of known concentrations were tested individually. The compounds (10 ul) were dispensed on a filter paper and were placed into a pasture pipette. The prepared pipettes were fixed tubing from the stimulus controller (CS-55, Syntech, The Netherlands) and the stimulus was puffed over the antennal preparation. The response was record using EAGPro software (Syntech, The Netherlands). Ten replicates were recorded for each compound per sex, with EAG activity confirmed in 100% of trials presenting 1-octanol or 1-nonanol for both sexes of C. capitata (FIG. 10E).

Bactrocera tryoni [7] = test: Four-arm olfactometer bioassay; assay type: in vivo; details: arm containing C1 vs without
Experimental: An acrylic four-arm olfactometer (120 mm dia.) was used to measure behavioural responses of Bactrocera tryoni males/females to food (yeast hydrolysate) with or without 1-octanol (EAG-active compound). Prior to each experiment, acrylic components were washed with a non-ionic detergent solution, rinsed with ethanol solution and distilled water, and left to air dry. Experiments were conducted in a controlled environment room (25±2° C., 60% RH). The central area was fitted with a filter-paper base (Whatmann No. 1, 12 cm dia.) to provide traction for the walking insects. The room was illuminated from above by uniform lighting from white fluorescent light bulbs to negate directional bias. Individual flies (10-15 days old) were introduced through a hole below the olfactometer. Each fly was given 5 min to acclimatize in the olfactometer, after which the experiment was run for 10 min for each replicate. The olfactometer was rotated 90° after each replicate to eliminate any directional bias in the room. Air was drawn through the central hole at 200 ml min-1 and subsequently exhausted from the room. The central arena of the olfactometer was divided into four discrete odour fields corresponding to each of four inlet arms. A choice test was performed that used two different opposite arms. […] Fly activity in each olfactometer was video recorded. The time spent in each arm was recorded using BORIS software. […]

[8] = tested on: Bactrocera tryoni antenna; test: GC-EAD electrophysiology of ant extracts; details: peak in Head and Headspace volatiles
Source text: Coupled Gas Chromatography-Electroantennography (GC-EAG) recordings were made with Ag-glass microelectrodes filled with electroconductive gel (Spectra 360, Parker Laboratories Inc., USA). The head of male or female Bactrocera tryoni, anaesthetized by chilling, was separated from the body with a microscalpel and was placed on the tip of the indifferent electrode, making sure the base of the head is affixed to the gel in the electrode. The tip of the insect antenna was made to touch the recording electrode and was slightly inserted into the gel to stabilize the antenna. The signals were passed through a high impedance amplifier (UN-06, Syntech, Hilversum, The Netherlands) and analysed using a software package provided by Syntech. Each extract-cuticular compounds, Dufour's glands, poison glands, trail, headspace, and head extractions were tested individually. After injection of extraction samples, the effluent from the GC column was simultaneously directed to the antennal preparation and the GC detector. Separation of compounds was achieved on an Agilent Gas Chromatography system equipped with a column injector and a flame ionization detector (FID), using an Agilent HP-5 column (30 m×0.32 mm, 0.25 μm film). […] The outputs from the EAG amplifier and the FID were monitored simultaneously and analysed using the Syntech software package. […]

Bactrocera tryoni [9] = test: Mating assay (mating disruption); assay type: in vivo; details: of 15 trials; 5 microliters on filter paper, air pumped into arena; P<0.00001 vs control
Experimental: Mating assays were carried out at dusk, the normal mating time of B. tryoni. A pair of 15-day old male and female flies were introduced into a behavioural arena 30 min before the onset of dusk. They were allowed to acclimatize for 20 min after which 1-octanol or filtered air was pumped through the inlet of the arena. Five microliters of 1-octanol was applied on a clean filter paper. This filter paper was placed into an air-tight vessel with an inlet and outlet. Charcoal filtered air (1 litre per hour) was pumped into the vessel from the inlet and the outlet was connected to the inlet of the arena with flies. Air from a vessel with clean filter paper was used as control. Fifteen pairs were set up for both 1-octanol treatment and air control. The activity of flies was recorded overnight, and the video was analysed using BORIS software. Collected data included (1) whether a pair mated, (2) Number of copulation attempts, and (3) copula duration.

Compound | Eggs laid on oviposition plates vs control (Bactrocera tryoni [1]) | Eggs laid on oviposition plates vs control (Bactrocera jarvisi) | Eggs laid on oviposition plates vs control (Zeugodacus cucumis) | Eggs laid vs control (Ceratitis capitata) | Eggs laid vs control (Bactrocera kraussi) | Trials with EAG activity [2] | Trials with EAG activity [3] | Trials with EAG activity [4] | Trials with EAG activity [5] | Trials with EAG activity [6] | Time spent in olfactometer arm (Bactrocera tryoni [7]) | Response in fly's antenna (GC-EAD) [8] | Trials in which flies attempted mating (Bactrocera tryoni [9]) | Trials with successful mating (Bactrocera tryoni [9])
CCCCCCCCCO [1-nonanol] | significantly different from control | significantly different from control | significantly different from control | significantly different from control | significantly different from control | 100 % of trials | 100 % of trials | 100 % of trials | 100 % of trials | 100 % of trials | – | – | – | –
CCCCCCCCO [1-octanol] | significantly different from control | significantly different from control | significantly different from control | significantly different from control | significantly different from control | 100 % of trials | 100 % of trials | 100 % of trials | 100 % of trials | 100 % of trials | less time | trigger response | none | none
